Here are results for 3 compounds from patent publication US20020013282A1, “CATIONIC AMPHIPILE COMPOSITIONS FOR INTERACELLUAR DELIVERY OF THERAPEUTIC MOLECULES” (priority 1995, published 2002).

SMILES strings stand for the structures.

Series [1] has as its system Immortalized human cystic fibrosis airway cells (CFT-1). Nature of the series: SPQ assay of cAMP-stimulated Cl− channel activity after transfection with pCMV-CFTR. It counts as cell-based. The following applies: amphiphile:DOPE 1:1, 10.5 μmolar each, 30 μmolar pCMV-CFTR; 48 hours after transfection. As for the experimental part: Immortalized human cystic fibrosis airway cells (CFT-1, as above) were used.
In preparation for the assay, the cells were grown on glass coverslips until approximately 60% confluent. The cells were then transfected with a complex of spermidine cholesterol carbamate: DOPE (1:1) and a plasmid(pCMV-CFTR) containing a cDNA that encodes wild type human CFTR. pCMV-CFTR plasmid is a construct containing the encoding sequence for CFTR and the following regulatory elements, a CMV promoter and enhancer, and an SV40 polyadenylation signal. Additional constructs suitable for the practice of this example include pMT-CFTR, Cheng et al., Cell. 63, 827-834 (1990). The complex used was 10.5 μmolar of spermidine cholesterol carbamate (also of DOPE) and 30 μmolar of pCMV-CFTR based on nucleotide.
48 hours after amphiphile-mediated transfection, cells were tested for cAMP-stimulated Cl^−channel activity using the 6methoxy-N-(3-sulfopropyl)quinolinium (“SPQ”) assay. […] In the assay, cAMP-dependent Cl^−channel activity was assessed using “SPQ” (from Molecular Probes, Eugene, Oreg.), a halide-sensitive fluorophore. Increases in halide permeability results in a more rapid increase in SPQ fluorescence, and the rate of change (rather than the absolute change in fluorescence) is the important variable in assessing Cl^−permeability. […]

Series [2] has as its system BALB/c mouse. Nature of the series: Intravenous delivery of CAT reporter transgene, organ targeting (lung, heart). It counts as in vivo. As for the experimental part: The reporter plasmid pCF-1 CAT (Example 4) was used and was purified to minimize endotoxin (<1 EU/mg pDNA), and also chromosomal DNA contamination (<2%). Amphiphile No. 53 (1:1 with DOPE)/DNA complex was prepared according to the procedures of Example 3. The amphiphile was provided as the free base, the plasmid was prepared as a sodium salt in water, and the DOPE was provided in zwitterionic form.
The animal model was the BALB/c mouse. Females 6-8 weeks old weighing 16-18 g were injected intravenously using the tail vein, using 5 animals per group. The volume of lipid: pDNA complex used was 100 μl in all experiments. Unless noted otherwise, mice were sacrificed 48 h following administration of the complex. Organs were frozen immediately on dry ice to store for subsequent analysis.
Expression of chloramphenicol acetyl transferase (CAT) was quantitated using a radiochemical assay for CAT enzymatic activity. Organs were weighed and homogenized on ice in a lysis buffer containing protease inhibitors. The lysate was freeze-thawed 3X, centrifuged, and heated to 65° C. to inactivate deacetylases before adding it to a reaction mixture containing ^14C-chloramphenicol. […] Spots corresponding to the acylated reaction products were quantitated (Betagen) and converted to ng CAT activity using authentic CAT standards. […]

Series [3] deals with lungs of balb/c mice. On the procedure: This assay was used to assess the ability of the cationic amphiphiles of the invention to transfect cells in vivo from live specimens. In the assay, the lungs of balb/c mice were instilled intra-nasally (the procedure can also be performed trans-tracheally) with 100 μl of cationic amphiphile: DNA complex, which was allowed to form during a 15-minute period prior to administration according to the following procedure. The amphiphile (premixed with co-lipid, see below) was hydrated in water for 10 minutes, a period sufficient to yield a suspension at twice the final concentration required. This was vortexed for two minutes and aliquoted to provide 55 microliter quantities for each mouse to be instilled. Similarly, DNA encoding the reporter (CAT) gene was diluted with water to a concentration twice the required final concentration, and then aliquoted at 55 microliters for each mouse to be instilled. The lipid was gently combined with the DNA (in a polystyrene tube), and the complex allowed to form for 15 minutes before the mice were instilled therewith.
The plasmid used (pCMVHI-CAT, see Example 4) provides an encoding DNA for chloramphenicol transferase enzyme. Specifics on the amphiphile: DNA complexes are provided below.
Two days following transfection, mice were sacrificed, and the lungs and trachea removed, weighed, and homogenized in a buffer solution (250 mM Tris, pH 7.8, 5 mM EDTA). The homogenate was clarified by centrifugation, and the deacetylases therein were inactivated by heat treatment at 70° C. for 10 minutes. Lysate was incubated overnight with acetyl coenzyme A and C^14-chloramphenicol. CAT enzyme activity was then visualized by thin layer chromatography (“TLC”) following an ethyl acetate extraction.
The presence of the enzyme CAT will cause an acetyl group to be transferred from acetylcoenzyme A to C^14-chloramphenicol. The acetylated/radiolabeled chloramphenicol migrates faster on a TLC plate and thus its presence can be detected.
With respect to the comparison provided by FIG. 10, the following conditions are of note. The transfection solution for spermidine cholesterol carbamate contained 6 mM DNA measured as concentration of nucleotide, and 1.5 mM of cationic amphiphile. […] For transfection with DC-chol, the molar ratio of DC-chol to DOPE was 3:2, and the concentrations of cationic amphiphile and of DNA (as nucleotide) were 1.3 mM and 0.9 mM, respectively. For transfection with DMRIE, the molar ratio of DMRIE to DOPE was 1:1 and the concentrations of cationic amphiphile and of DNA were 1.7 mM and 1.2 mM, respectively.
Additional experiments were performed to compare in vivo the transfection efficiency of cationic amphiphiles depicted in FIGS. 1, 5 and 7. […] The compounds were administered intra-nasally using between 12 and 15 mice per compound. As in part A above, ng CAT activity was measured per 100 mg of tissue. […] Construction of pCF1/CAT and pCF2/CAT is described below in Example 4.
The in vivo data reported in FIGS. 13, 14 and 15 were compiled generally as follows. As aforementioned, FIGS. 10 and 11 report data from the complete in vivo optimization of amphiphile No. 53. Amphiphile No. 67 was subjected to a similar partial optimization. With respect to all of the other cationic amphiphiles reported on, and taking advantage of numerous structural similarities, optimized compositions for in vivo testing were extrapolated from in vitro results.

For series [4], the system named is CFT-1 cell line (human cystic fibrosis bronchial epithelial cells). Nature of the series: Cell transfection assay (β-galactosidase expression from pCMVβ). It is filed as cell-based. The following applies: amphiphile:DOPE 1:1, CFT-1 cells.
Protocol: Separate 3.35 μmole samples of spermidine cholesterol carbamate (amphiphile No. 53) and the neutral lipid dioleoylphosphatidylethanolamine (“DOPE”) were each dissolved in chloroform as stock preparations. Following combination of the solutions, a thin film was produced by removing chloroform from the mixture by evaporation under reduced pressure (20 mm Hg). The film was further dried under vacuum (1 mm Hg) for 24 hours.
The resulting suspension was then diluted with 4 ml of water to yield a solution that is 670 μM in cationic amphiphile and 670 μM in neutral colipid.
For preparation of the transfecting solution, DNA encoding for β- galactosidase (pCMVβ, ClonTech., Palo Alto, Calif.) was dissolved in OptiMEM culture medium (Gibco/BRL No. 31885-013).
The resulting 335 μM solutions were then serially diluted 7 times to generate 8 separate amphiphile-containing solutions having concentrations ranging from 335 μM to 2.63 μM, with each resultant solution having a volume of 165 μl. Thus, 64 solutions were prepared in all, there being 8 wells each of 8 different concentrations of amphiphile/DOPE. […]
The nature of series [5]: Zeta potential of amphiphile/DNA complex. It is filed as physicochemical. Conditions: 1:1 with DOPE. As for the experimental part:
Zeta potentials of the samples can be measured (using typically 5 measurements per sample) employing a Malvern Zetasizer 4 (Malvern Instruments, Southborough, Mass.) and a zeta cell (AZ-104 cell, Malvern Instruments Co.). Dried lipid films containing the cationic lipid and DOPE are hydrated in distilled water (dH2O). DNA typically should be diluted to a concentration of about 300 μM in dH2O. The DNA solution (1.5 mL) can then be added to an equal volume of cationic lipid vesicles and incubated at room temperature for 10 min. Enough NaCl (for example, 4 mM stock) may be added to result in a final concentration of 1 mM NaCl. If necessary, the sample can be diluted further with 1 mM NaCl (to maintain a photomultiplier signal below 4000 counts per second), and distilled water can be used in place of the NaCl solutions.

The nature of series [6]: Transacylation reaction of amphiphile with co-lipid DOPE on co-storage. It is filed as physicochemical. An excerpt: Although heretofore unrecognized in the art, it has been determined also that certain co-lipids may react chemically with certain types of cationic amphiphiles under conditions of co-storage, there resulting new molecular species. Generation of such new species is believed to occur via mechanisms such as transacylation. In this regard, see FIG. 4 which depicts a transacylation reaction involving spermidine cholesterol carbamate(No.67) and DOPE, there resulting lyso PE species and multiple forms of particular acyl-cationic amphiphile (designated No. 80).
With respect to such reactions, the following remarks are of interest. […] It is expected that these phenomena would also apply to lyophilized amphiphile/DOPE preparations.
Accordingly, it is highly preferred to maintain such amphiphile/DOPE preparations at very cold temperatures, such as −70 degrees C.

Series [7] in a line: Transgene expression by protonation state of the amphiphile in transfecting composition with DOPE. The following applies: for transgene expression activity: with DOPE. As for the experimental part:
With respect to amphiphile No. 67 (spermidine cholesterol carbamate), it has been observed that when providing this amphiphile for a transfecting composition with DOPE (itself provided as a zwitterion), transgene expression was best for the free base, but decreased if the amphiphile was prepared as an acetate salt. […] Under the circumstances described, the plasmid DNA provided for contacting with the amphiphile was prepared (without buffer) as a sodium salt in water.

[8] abbreviates: 1.0-1.5 mM amphiphile, cholesterol 1:1, DNA 4.0-6.0 mM, pCMVHI-CAT, intra-nasal.
Where [9] appears, read: 0.6 mM amphiphile, 0.6 or 1.2 mM DOPE, 3.6 mM plasmid DNA.

As for `CC(C)CCCC(C)C1CCC2C3CC=C4CC(OC(=O)N(CCCN)CCCCN)CCC4(C)C3CCC12C` (centres unmarked) [amphiphile No. 53, N^4-spermidine cholesteryl carbamate], the “cells exhibiting measurable cAMP-stimulated Cl− channel activity” value in series [1] is “Approximately 60%”. For the same compound, the “organ distribution of CAT expression” value in series [2] (amphiphile/DNA molar ratio less than about 0.5, DNA 0.9 mM) is recorded as “strongly weighted toward the lung”; in series [2] (amphiphile/DNA ratio 1.25, DNA 0.9 mM), “substantial expression was found in the heart”. For the same compound, the “enhancement of in vivo transfection (ng CAT activity per 100 mg tissue) in relation to DMRIE and DC-Chol” value in series [3] (1.5 mM amphiphile, 1:1 DOPE, 6 mM DNA (pCMVHI-CAT), intra-nasal, 2 days) is ≥ 20 fold. Besides, the “transfection enhancement in relation to N^1-spermidine cholesteryl carbamate” value in series [3] (6 mM DNA (as nucleotide), 1.5 mM amphiphile, 1.5 mM co-lipid, procedures of Example 3 part B) is “about 30 fold”. In series [3] (setting [8]), the “transfection efficiency (ng CAT/100 mg tissue) with cholesterol as co-lipid compared with DOPE as co-lipid” value is on record as “less effective”. The “transfection with cholesterol as co-lipid compared with DC-Chol/DOPE” value in series [3] (setting [8]) is listed as “substantially more effective”. The “toxicity to the target cells” value in series [3] (about 0.75 mM amphiphile, 3.0 mM plasmid, versus 1.5 mM / 6 mM) is reported as “less toxic”. Besides, in series [4], the “transfection efficiency (β-galactosidase expression) improved by a factor, relative to DMRIE:DOPE (1:1)” value is “about 5”. The “zeta potential of the complex” value in series [5] (amphiphile/DNA molar ratio less than about 0.5) was “about −30 mV”; in series [5] (amphiphile/DNA ratio of 1.25), “about +30 mV”.
As for `CC(C)CCCC(C)C1CCC2C3CC=C4CC(OC(=O)NCCCNCCCCN)CCC4(C)C3CCC12C` (centres unmarked) [amphiphile No. 37, N^1-spermidine cholesteryl carbamate], in series [3] (setting [9]), the “improvement in reporter gene expression, free base form versus fully protonated hydrochloride salt” value is ~50 fold and the “reporter gene expression, free base form compared to fully protonated hydrochloride salt” value is “dramatically increased”.
As for `CC(C)CCCC(C)C1CCC2C3CC=C4CC(OC(=O)N(CCCN)CCCCNCCCN)CCC4(C)C3CCC12C` (centres unmarked) [amphiphile No. 67], the “transfection enhancement in relation to N^1-thermospermine cholesteryl carbamate and N^1-spermidine cholesteryl carbamate” value in series [3] (4 mM DNA (as nucleotide), 1 mM amphiphile, 2 mM co-lipid, procedures of Example 3 part B) is given as “at least 30 fold”. Moreover, the “transacylation with DOPE” value in series [6] (amphiphile and co-lipid dried down to a thin film from chloroform) is listed as “transacylation also occurs”; in series [6] (amphiphile prepared as mono, di, or tri acetate salt), “slow transacylations”; in series [6] (mixture of amphiphile and DOPE in chloroform solvent) it was “does not appear to participate in such reactions”. In series [7] (amphiphile as free base, with DOPE (zwitterion)), the transgene expression result was “best”. Further, the transgene expression activity entry in series [7] (amphiphile as mono and di acetate salts) is listed as “decreased step-wise”; in series [7] (amphiphile as tri-acetate salt), “minimal”.
